This note sets out measurements from patent US10611778B2, “Fused bicyclic inhibitors of menin-MLL interaction” (Janssen Pharmaceutica NV, priority 2016, dated 2020).

Usually IC50 stands for the concentration needed to halve the response being measured.

Where two headings read alike, the source gives them in different places.

For this experiment, the target named is T1, Menin/MLL (terbium chelate-labeled menin, FITC-MBM1 peptide) (Homo sapiens, UniProt O00255, T541A).
T1 construct: Menin (a.a. 1-610-6×his tag) was labeled with terbium cryptate as follows
T1 sequence (O00255 with tags, fused parts or gaps T541A): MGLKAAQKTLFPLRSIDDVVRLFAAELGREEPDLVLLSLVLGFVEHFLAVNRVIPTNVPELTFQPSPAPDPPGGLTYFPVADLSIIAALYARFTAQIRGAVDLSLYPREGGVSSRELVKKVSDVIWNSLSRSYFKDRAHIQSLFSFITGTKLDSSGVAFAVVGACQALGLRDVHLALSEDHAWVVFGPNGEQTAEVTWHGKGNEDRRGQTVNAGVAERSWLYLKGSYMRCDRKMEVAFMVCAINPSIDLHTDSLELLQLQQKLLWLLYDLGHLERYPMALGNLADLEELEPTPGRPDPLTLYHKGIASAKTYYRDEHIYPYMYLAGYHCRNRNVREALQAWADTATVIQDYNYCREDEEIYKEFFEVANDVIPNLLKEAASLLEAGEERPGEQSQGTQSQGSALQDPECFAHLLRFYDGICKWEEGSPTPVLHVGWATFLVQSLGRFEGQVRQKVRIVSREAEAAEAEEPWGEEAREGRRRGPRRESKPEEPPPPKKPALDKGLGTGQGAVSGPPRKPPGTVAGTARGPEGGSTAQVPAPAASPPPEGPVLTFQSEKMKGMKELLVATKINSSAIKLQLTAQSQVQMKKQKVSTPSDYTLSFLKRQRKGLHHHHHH
Kind of experiment: Menin/MLL homogenous time-resolved fluorescence (HTRF) assay. The class given is binding. Summed up:
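Compound preincubated 5 min with terbium-cryptate-labeled menin (aa 1-610, His-tagged; 100 pM final), then 75 nM FITC-MBM1 peptide added, 15 min at ambient temperature; 0.5% DMSO, Tris pH 7.5 buffer. HTRF ratio 520/490 nm; % inhibition vs saturating competitor, IC50 from 11-point three-fold titration from 31 μM.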
Background: TR-FRET usually uses a lanthanide donor and a delayed reading to cut background.

Where [1] appears, read: averaged values over all measurements, read-out: Menin HTRF assay (IC50).

Turning to `Fc1ccccc1CN1CC[C@H]2CN(c3ncnc4sc(CC(F)(F)F)cc34)CC[C@H]21` (single isomer, unassigned) [Compound 6], the IC50 under setting [1] was found to be 476 nM.
As for `FC(F)(F)Cc1cc2c(N3CCC4C(CCN4Cc4ccccc4)C3)ncnc2s1` (stereo not shown) [Compound 1], the IC50 under setting [1] was determined as 113 nM.
Regarding `FC(F)(F)Cc1cc2c(N3CC[C@H]4[C@H](CCN4Cc4ccc[nH]4)C3)ncnc2s1` (single isomer, unassigned) [Compound 8], the IC50 (individual measurements (not averaged), read-out: (3) Menin HTRF assay (IC50 (nM))) was 48 nM.
Take `FC(F)(F)Cc1cc2c(N3CCC4C3CCN4Cc3ccccc3)ncnc2s1` (stereo not shown) [Compound 2]: the IC50 under setting [1] is 797 nM.
